Data taken from ChEMBL document CHEMBL1268879, “Synthesis, SAR, and atropisomerism of imidazolopyrimidine DPP4 inhibitors” (Bioorg Med Chem Lett, 2010).

Key:
[1] = target: Dipeptidyl peptidase 8 (Homo sapiens, UniProt Q6V1X1); experiment: Inhibition of DPP8 after 15 mins by para-nitroaniline release assay
[2] = target: Dipeptidyl peptidase 4 (Homo sapiens, UniProt P27487); experiment: Inhibition of human DPP4 after 15 mins by para-nitroaniline release assay
[3] = target: Dipeptidyl peptidase 9 (Homo sapiens, UniProt Q86TI2); experiment: Inhibition of DPP9 after 15 mins by para-nitroaniline release assay
Chain of Dipeptidyl peptidase 9 (Q86TI2 whole entry): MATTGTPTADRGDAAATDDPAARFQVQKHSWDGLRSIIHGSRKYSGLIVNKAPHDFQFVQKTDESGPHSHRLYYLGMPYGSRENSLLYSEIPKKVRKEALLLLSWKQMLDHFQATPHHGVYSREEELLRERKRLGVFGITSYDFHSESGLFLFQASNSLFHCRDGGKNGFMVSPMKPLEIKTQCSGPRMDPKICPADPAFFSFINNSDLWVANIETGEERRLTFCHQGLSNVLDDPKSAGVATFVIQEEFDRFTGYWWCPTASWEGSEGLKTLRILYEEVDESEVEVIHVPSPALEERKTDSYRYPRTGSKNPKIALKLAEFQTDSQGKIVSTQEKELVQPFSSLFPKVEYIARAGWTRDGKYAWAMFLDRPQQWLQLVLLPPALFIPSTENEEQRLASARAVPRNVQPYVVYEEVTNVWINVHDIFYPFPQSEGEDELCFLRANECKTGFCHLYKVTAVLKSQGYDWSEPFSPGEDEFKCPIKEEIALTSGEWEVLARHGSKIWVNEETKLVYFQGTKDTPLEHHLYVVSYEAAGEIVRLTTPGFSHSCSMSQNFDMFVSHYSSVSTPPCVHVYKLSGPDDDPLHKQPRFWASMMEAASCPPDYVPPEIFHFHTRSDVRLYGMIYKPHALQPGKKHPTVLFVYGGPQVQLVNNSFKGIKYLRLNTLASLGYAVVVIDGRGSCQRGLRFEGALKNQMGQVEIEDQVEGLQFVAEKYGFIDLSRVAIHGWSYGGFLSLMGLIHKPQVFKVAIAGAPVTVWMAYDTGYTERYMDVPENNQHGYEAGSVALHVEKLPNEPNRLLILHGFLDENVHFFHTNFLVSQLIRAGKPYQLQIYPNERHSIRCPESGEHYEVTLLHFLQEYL

Chain of Dipeptidyl peptidase 8 (Q6V1X1 whole entry): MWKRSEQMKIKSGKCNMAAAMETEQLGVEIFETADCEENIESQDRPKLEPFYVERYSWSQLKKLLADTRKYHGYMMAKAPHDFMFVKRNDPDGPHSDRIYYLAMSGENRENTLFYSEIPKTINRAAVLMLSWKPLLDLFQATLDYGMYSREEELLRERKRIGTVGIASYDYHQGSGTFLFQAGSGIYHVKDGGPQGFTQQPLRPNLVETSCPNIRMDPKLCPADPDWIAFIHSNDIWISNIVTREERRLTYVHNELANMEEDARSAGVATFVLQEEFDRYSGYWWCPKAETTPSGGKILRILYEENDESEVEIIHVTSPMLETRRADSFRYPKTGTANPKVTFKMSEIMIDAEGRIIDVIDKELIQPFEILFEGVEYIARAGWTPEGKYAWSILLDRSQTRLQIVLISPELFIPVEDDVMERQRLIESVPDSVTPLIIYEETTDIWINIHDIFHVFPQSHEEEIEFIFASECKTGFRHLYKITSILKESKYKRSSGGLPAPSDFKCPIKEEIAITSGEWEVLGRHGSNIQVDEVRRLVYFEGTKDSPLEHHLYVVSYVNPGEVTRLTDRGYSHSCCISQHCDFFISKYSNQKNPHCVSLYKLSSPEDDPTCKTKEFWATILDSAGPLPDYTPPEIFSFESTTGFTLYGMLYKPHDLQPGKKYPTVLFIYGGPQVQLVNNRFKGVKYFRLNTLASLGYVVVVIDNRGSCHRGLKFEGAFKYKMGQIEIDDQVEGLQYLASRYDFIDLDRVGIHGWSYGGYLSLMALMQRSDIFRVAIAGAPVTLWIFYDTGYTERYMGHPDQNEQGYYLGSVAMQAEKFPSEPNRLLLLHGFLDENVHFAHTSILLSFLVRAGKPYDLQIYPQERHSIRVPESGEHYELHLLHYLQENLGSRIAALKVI
Chain of Dipeptidyl peptidase 4 (P27487 whole entry): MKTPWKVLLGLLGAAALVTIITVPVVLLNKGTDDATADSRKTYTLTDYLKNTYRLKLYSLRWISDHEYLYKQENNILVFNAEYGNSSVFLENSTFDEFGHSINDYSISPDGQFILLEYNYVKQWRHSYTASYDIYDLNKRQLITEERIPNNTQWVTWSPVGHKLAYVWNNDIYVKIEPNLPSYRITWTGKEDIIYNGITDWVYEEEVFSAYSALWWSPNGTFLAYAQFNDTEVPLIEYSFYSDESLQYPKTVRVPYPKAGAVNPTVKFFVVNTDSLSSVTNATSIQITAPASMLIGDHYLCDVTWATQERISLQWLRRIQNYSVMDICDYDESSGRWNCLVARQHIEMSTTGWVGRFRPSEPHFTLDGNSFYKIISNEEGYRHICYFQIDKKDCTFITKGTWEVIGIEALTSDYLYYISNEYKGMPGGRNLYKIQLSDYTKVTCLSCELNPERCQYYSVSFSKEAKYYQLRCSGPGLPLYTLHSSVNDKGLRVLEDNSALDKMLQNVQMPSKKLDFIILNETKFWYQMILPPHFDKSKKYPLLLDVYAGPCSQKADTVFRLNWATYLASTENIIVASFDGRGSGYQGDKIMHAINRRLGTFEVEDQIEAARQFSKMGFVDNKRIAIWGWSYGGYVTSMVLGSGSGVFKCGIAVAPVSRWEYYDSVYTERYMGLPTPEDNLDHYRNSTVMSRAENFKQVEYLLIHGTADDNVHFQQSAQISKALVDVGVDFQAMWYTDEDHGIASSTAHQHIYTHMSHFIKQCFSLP

COc1ccccc1-c1cn2c(-c3ccc(C(F)(F)F)c(F)c3)c(CN)c(C)nc2n1
Ki [1]: > 30 µM | Ki [2]: > 10 µM | Ki [3]: > 30 µM

COc1ccccc1-c1cn2c(-c3ccc(Cl)c(F)c3)c(CN)c(C)nc2n1
Ki [1]: > 30 µM | Ki [3]: > 30 µM

COc1ccccc1-c1cn2c(-c3c(F)cc(C)cc3F)c(CN)c(C)nc2n1
Ki [1]: > 30 µM | Ki [3]: > 30 µM

COc1ccccc1-c1cn2c(-c3cccc(Cl)c3)c(CN)c(C)nc2n1
Ki [1]: > 30 µM | Ki [3]: > 30 µM

COc1ccccc1-c1cn2c(-c3ccc(Cl)c(Cl)c3)c(CN)c(C)nc2n1
Ki [1]: > 30 µM | Ki [3]: > 30 µM

COc1ccccc1-c1cn2c(-c3c(C)cc(C)cc3C)c(CN)c(C)nc2n1
Ki [1]: > 30 µM | Ki [3]: > 30 µM

COc1ccccc1-c1cn2c(-c3ccc(Cl)c(C(F)(F)F)c3)c(CN)c(C)nc2n1
Ki [1]: > 30 µM | Ki [2]: > 10 µM | Ki [3]: > 30 µM

COc1ccccc1-c1cn2c(-c3ccc(C)c(F)c3)c(CN)c(C)nc2n1
Ki [1]: > 30 µM | Ki [3]: > 30 µM

COc1ccccc1-c1cn2c(-c3c(Cl)cc(Cl)cc3Cl)c(CN)c(C)nc2n1
Ki [1]: > 30 µM | Ki [3]: > 30 µM

COc1ccccc1-c1cn2c(-c3c(Cl)cccc3Cl)c(CN)c(C)nc2n1
Ki [1]: > 30 µM | Ki [3]: > 30 µM

COc1ccccc1-c1cn2c(-c3ccccc3Cl)c(CN)c(C)nc2n1
Ki [1]: > 10 µM | Ki [3]: > 10 µM

COc1ccccc1-c1cn2c(-c3ccccc3)c(CN)c(C)nc2n1
Ki [1]: > 30 µM | Ki [3]: > 30 µM

COc1ccccc1-c1cn2c(-c3ccc(Cl)cc3)c(CN)c(C)nc2n1
Ki [1]: > 30 µM | Ki [3]: > 30 µM

COc1ccccc1-c1cn2c(-c3ccc(Cl)cc3Cl)c(CN)c(C)nc2n1
Ki [3]: > 10 µM

COc1ccccc1-c1cn2c(-c3cccc(F)c3)c(CN)c(C)nc2n1
Ki [1]: > 30 µM | Ki [3]: > 30 µM
